Test results as given in patent US20250134869A1, “Pyrrolo[2,3-d]pyrimidinyl, Pyrrolo[2,3-b]pyrazinyl and Pyrrolo[2,3-d]pyridinyl Acryla-mides” (Pfizer Inc, priority 2021, published 2025).
Read-outs that look alike come from different tables or passages of the source.

Target: JAK3 enzyme (Homo sapiens (Human), UniProt P52333)
Assay: JAK Caliper Enzyme Assay at 4 μM or 1 mM ATP
Type: biochemical
Procedure: JAK Caliper Enzyme Assay at […] or 1 mM ATP
Test article was solubilized in dimethyl sulfoxide (DMSO) to a stock concentration of 30 mM. An 11-point half log dilution series was created in DMSO with a top concentration of 600 μM. […] The compound plates were diluted 1 to 60 resulting in a top final assay compound concentration of 10 μM and a 2% DMSO concentration.
Test article and assay controls were added to a 384-well plate. Reaction mixtures contained 20 mM HEPES, pH 7.4, 10 mM magnesium chloride, 0.01% bovine serum albumin (BSA), 0.0005% Tween […] or 1 mM ATP and […] peptide substrate. […] The assays were initiated by the addition 1 nM JAK3 enzyme and were incubated at room temperature 75 minutes for JAK3. Enzyme concentrations and incubation times were optimized for each new enzyme preps and were modified slightly over time to ensure 20%-30% phosphorylation. The assays were stopped with a final concentration of 10 mM EDTA, 0.1% Coating Reagent and 100 mM HEPES, pH=7.4. The assay plates were placed on a Caliper Life Science Lab Chip 3000 (LC3000) instrument, and each well was sampled using appropriate separation conditions to measure the unphosphorylated and phosphorylated peptide.

[1] = read-out: JAK3 (4 μM ATP) IC50, 4 μM ATP
[2] = read-out: JAK3 (1 mM ATP) IC50, 1 mM ATP

JAK3 enzyme, sequence (P52333 whole entry, species assumed): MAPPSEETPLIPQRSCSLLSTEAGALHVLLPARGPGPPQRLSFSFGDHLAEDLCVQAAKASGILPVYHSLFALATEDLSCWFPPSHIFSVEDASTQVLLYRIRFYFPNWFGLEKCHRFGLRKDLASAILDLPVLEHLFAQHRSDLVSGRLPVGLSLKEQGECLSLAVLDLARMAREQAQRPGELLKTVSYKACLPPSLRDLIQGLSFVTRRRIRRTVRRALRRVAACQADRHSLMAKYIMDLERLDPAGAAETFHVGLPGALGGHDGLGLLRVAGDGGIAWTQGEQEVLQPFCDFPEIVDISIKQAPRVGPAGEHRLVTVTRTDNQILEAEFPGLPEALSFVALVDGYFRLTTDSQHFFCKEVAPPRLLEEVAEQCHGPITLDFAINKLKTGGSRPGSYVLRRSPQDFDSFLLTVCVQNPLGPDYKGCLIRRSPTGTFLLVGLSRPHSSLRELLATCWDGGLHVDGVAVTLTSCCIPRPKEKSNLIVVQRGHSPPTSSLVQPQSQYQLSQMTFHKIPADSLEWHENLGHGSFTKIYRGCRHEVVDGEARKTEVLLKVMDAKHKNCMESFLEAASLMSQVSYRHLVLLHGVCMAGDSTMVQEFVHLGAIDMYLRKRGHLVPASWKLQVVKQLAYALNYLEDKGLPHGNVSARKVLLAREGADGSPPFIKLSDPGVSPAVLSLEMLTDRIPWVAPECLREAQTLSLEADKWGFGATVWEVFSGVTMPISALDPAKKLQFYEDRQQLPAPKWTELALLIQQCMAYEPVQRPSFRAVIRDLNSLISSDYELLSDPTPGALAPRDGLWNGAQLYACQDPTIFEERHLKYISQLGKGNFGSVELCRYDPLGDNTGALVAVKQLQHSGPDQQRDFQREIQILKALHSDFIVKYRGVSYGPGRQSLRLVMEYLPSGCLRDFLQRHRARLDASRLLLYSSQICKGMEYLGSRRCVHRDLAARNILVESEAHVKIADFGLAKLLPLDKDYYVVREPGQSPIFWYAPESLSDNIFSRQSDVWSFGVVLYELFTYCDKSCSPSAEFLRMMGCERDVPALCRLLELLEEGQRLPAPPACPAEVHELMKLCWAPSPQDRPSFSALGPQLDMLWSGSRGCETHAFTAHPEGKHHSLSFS

| Structure (SMILES) | IC50 [1] | IC50 [2] |
| --- | --- | --- |
| C/C=C/C(=O)N1CCC[C@@H](N2CC(C)c3c[nH]c4ncnc2c34)C1 (mixture of isomers) [Example 154, (2E)-1-[(3R)-3-(3-methyl-3,4-dihydro-1,5,6,8-tetraazaacenaphthylen-5 (1H)-yl)piper-idin-1-yl]but-2-en-1-one] | 4940 nM |  |
| C=CC(=O)N1C[C@H](Nc2ncnc3[nH]ccc23)C[C@H](OC)C1 [Example 19, 1-((3R,5S)-3-((7H-Pyrrolo[2,3-d]pyrimidin-4-yl)amino)-5-methoxypiperidin-1-yl)prop-2-en-1-one] | 0.6 nM | 67.6 nM |
| C=CC(=O)N1CCC[C@@H](Nc2ncnc3[nH]cc(-c4cccnc4)c23)C1 [Example 26, 1-[(3R)-3-{[5-(pyridin-3-yl)-7H-pyrrolo[2,3-d]pyrimidin-4-yl]amino}piperidin-1-yl]prop-2-en-1-one] | 1.6 nM | 153 nM |
| C=CC(=O)N1CCC[C@@H](Nc2ncnc3[nH]cc(-c4ccc5c(cnn5C)c4)c23)C1 [Example 34, 1-[(3R)-3-{[5-(1-methyl-1H-indazol-5-yl)-7H-pyrrolo[2,3-d]pyrimidin-4-yl]amino}piperidin-1-yl]prop-2-en-1-one] | 54.4 nM | 4820 nM |
| C=CC(=O)N1CCC[C@@H](Nc2ncnc3[nH]cc(-c4cnc(N5CCOCC5)nc4)c23)C1 [Example 35, 1-[(3R)-3-({5-[2-(morpholin-4-yl)pyrimidin-5-yl]-7H-pyrrolo[2,3-d]pyrimidin-4-yl}amino)piperidin-1-yl]prop-2-en-1-one] | 83 nM |  |
| C=CC(=O)N1CCC[C@@H](Nc2ncnc3[nH]cc(C4CC4)c23)C1 [Example 37, 1-{(3R)-3-[(5-cyclopropyl-7H-pyrrolo[2,3-d]pyrimidin-4-yl)amino]piperidin-1-yl}prop-2-en-1-one] | 295 nM |  |
| C=CC(=O)N1CCC[C@@H](Nc2ncnc3[nH]cc(/C=C/c4ccoc4)c23)C1 [Example 38, 1-[(3R)-3-({5-[(E)-2-(furan-3-yl)ethenyl]-7H-pyrrolo[2,3-d]pyrimidin-4-yl}amino)piperidin-1-yl]prop-2-en-1-one] | 3250 nM |  |
| C=CC(=O)N1CCC[C@@H](Nc2ncnc3[nH]cc(C=C)c23)C1 [Example 40, 1-{(3R)-3-[(5-ethenyl-7H-pyrrolo[2,3-d]pyrimidin-4-yl)amino]piperidin-1-yl}prop-2-en-1-one] | > 10000 nM |  |
| C=C(C(=O)N1CC[C@@H]2CCN(c3ncnc4[nH]ccc34)[C@@H]2C1)C(F)(F)F [Example 41, 1-((3aS,7aS)-1-(7H-Pyrrolo[2,3-d]pyrimidin-4-yl)hexahydro-1H-pyrrolo[2,3-c]pyridin-6 (2H)-yl)-2-(trifluoromethyl)prop-2-en-1-one] | 1 nM | 92.5 nM |
| C=CC(=O)N1CCC[C@@H](Nc2ncnc3[nH]cc(C)c23)C1 [Example 43, 1-{(3R)-3-[(5-methyl-7H-pyrrolo[2,3-d]pyrimidin-4-yl)amino]piperidin-1-yl}prop-2-en-1-one] | 1.2 nM | 99.5 nM |
| C=CC(=O)N1CCC[C@@H](Nc2ncnc3[nH]cc(CC)c23)C1 [Example 44, 1-{(3R)-3-[(5-ethyl-7H-pyrrolo[2,3-d]pyrimidin-4-yl)amino]piperidin-1-yl}prop-2-en-1-one] | 0.3 nM | 168 nM |
| C=CC(=O)N1CCC[C@@H](Nc2ncnc3[nH]cc(C#N)c23)C1 [Example 45, 4-{[(3R)-1-acryloylpiperidin-3-yl]amino}-7H-pyrrolo[2,3-d]pyrimidine-5-carbonitrile] | 1 nM | 168 nM |
| C=CC(=O)N1CCC[C@@H](Nc2ncnc3[nH]cc(CC(C)(C)O)c23)C1 [Example 53, (R)-1-(3-((5-(2-Hydroxy-2-methylpropyl)-7H-pyrrolo[2,3-d]pyrimidin-4-yl)amino)piperidin-1-yl)prop-2-en-1-one] | 4 nM | 192 nM |
| C=CC(=O)N1CC[C@@H](F)[C@@H](Nc2ncnc3[nH]ccc23)C1 [Example 54, 1-((3S,4R)-3-((7H-Pyrrolo[2,3-d]pyrimidin-4-yl)amino)-4-fluoropiperidin-1-yl)prop-2-en-1-one] | 1.7 nM | 192 nM |

Other lines, results leading:

| IC50 [1] | IC50 [2] | Structure (SMILES) |
| --- | --- | --- |
| 9440 nM |  | C=C(C)C(=O)N1CCC[C@@H](N2CC(C)c3c[nH]c4ncnc2c34)C1 (mixture of isomers) [Example 153, 2-Methyl-1-[(3R)-3-(3-methyl-3,4-dihydro-1,5,6,8-tetraazaacenaphthylen-5 (1H)-yl)piperidin-1-yl]prop-2-en-1-one] |
| 0.4 nM | 53.9 nM | C=CC(=O)N1C[C@H](Nc2ncnc3[nH]ccc23)CC[C@@H]1CC (single isomer, unassigned) [Example 9] |
| 0.5 nM | 32.1 nM | C=CC(=O)N1CC[C@H](F)[C@@H](Nc2ncnc3[nH]ccc23)C1 [Example 4, 1-((3S,4S)-3-((7H-pyrrolo[2,3-d]pyrimidin-4-yl)amino)-4-fluoropiperidin-1-yl)prop-2-en-1-one] |
| 0.3 nM | 40 nM | C=CC(=O)N1C[C@H](C#N)C[C@@H](Nc2ncnc3[nH]ccc23)C1 [Example 6, (3R,5R)-5-((7H-pyrrolo[2,3-d]pyrimidin-4-yl)amino)-1-acryloylpiperidine-3-carbonitrile] |
| 0.7 nM | 56.8 nM | C=CC(=O)N1CCC[C@@H](Nc2ncnc3[nH]ccc23)C1 [Example 12, (R)-1-(3-((7H-Pyrrolo[2,3-d]pyrimidin-4-yl)amino)piperidin-1-yl)prop-2-en-1-one] |
| 0.4 nM | 60.6 nM | C=CC(=O)N1C[C@H](Nc2ncnc3[nH]cc(CCOC)c23)CC[C@@H]1C [Example 13, 1-((2S,5R)-5-((5-(2-Methoxyethyl)-7H-pyrrolo[2,3-d]pyrimidin-4-yl)amino)-2-methylpiperidin-1-yl)prop-2-en-1-one] |
| 0.9 nM | 82.7 nM | C=CC(=O)N1C[C@@H](F)C[C@@H](Nc2ncnc3[nH]ccc23)C1 [Example 15, 1-((3R,5S)-3-((7H-Pyrrolo[2,3-d]pyrimidin-4-yl)amino)-5-fluoropiperidin-1-yl)prop-2-en-1-one] |
| 1.7 nM | 92.2 nM | C=CC(=O)N1C[C@@H](O)C[C@@H](Nc2ncnc3[nH]ccc23)C1 [Example 17, 1-((3R,5S)-3-(7H-Pyrrolo[2,3-d]pyrimidin-4-ylamino)-5-hydroxypiperidin-1-yl)prop-2-en-1-one] |
| 0.2 nM | 16.1 nM | C=CC(=O)N1C[C@H](Nc2ncnc3[nH]cc(Cl)c23)CC[C@@H]1C [Example 18, 1-((2S,5R)-5-((5-Chloro-7H-pyrrolo[2,3-d]pyrimidin-4-yl)amino)-2-methylpiperidin-1-yl)prop-2-en-1-one] |
| 1 nM | 76.5 nM | C=CC(=O)N1CCC[C@@H](Nc2ncnc3[nH]cc(CC#N)c23)C1 [Example 20, (R)-2-(4-((1-Acryloylpiperidin-3-yl)amino)-7H-pyrrolo[2,3-d]pyrimidin-5-yl)acetonitrile] |
| 1.3 nM | 86.6 nM | C=CC(=O)N1CCC[C@@H](Nc2ncnc3[nH]cc(-c4cncc(F)c4)c23)C1 [Example 23, 1-[(3R)-3-{[5-(5-fluoropyridin-3-yl)-7H-pyrrolo[2,3-d]pyrimidin-4-yl]amino}piperidin-1-yl]prop-2-en-1-one] |
| 1.2 nM | 98.1 nM | C=CC(=O)N1CCC[C@@H](Nc2ncnc3[nH]cc(-c4cncc(OC)c4)c23)C1 [Example 24, 1-[(3R)-3-{[5-(5-methoxypyridin-3-yl)-7H-pyrrolo[2,3-d]pyrimidin-4-yl]amino}piperidin-1-yl]prop-2-en-1-one] |
| 2.9 nM | 149 nM | C=CC(=O)N1CCC[C@@H](Nc2ncnc3[nH]cc(-c4ccccc4O)c23)C1 [Example 25, 1-[(3R)-3-{[5-(2-hydroxyphenyl)-7H-pyrrolo[2,3-d]pyrimidin-4-yl]amino}piperidin-1-yl]prop-2-en-1-one] |
| 2.8 nM | 294 nM | C=CC(=O)N1CCC[C@@H](Nc2ncnc3[nH]cc(-c4ccc(C(=O)N(C)C)cc4)c23)C1 [Example 27, 4-(4-{[(3R)-1-acryloylpiperidin-3-yl]amino}-7H-pyrrolo[2,3-d]pyrimidin-5-yl)-N,N-dimethylbenzamide] |
| > 10000 nM |  | C=CC(=O)N1CCC[C@@H](Nc2ncnc3[nH]cc(CC(C)C)c23)C1 [Example 39, 1-[(3R)-3-{[5-(2-methylpropyl)-7H-pyrrolo[2,3-d]pyrimidin-4-yl]amino}piperidin-1-yl]prop-2-en-1-one] |
| 0.9 nM | 94.4 nM | C=CC(=O)N1CCC[C@@H](Nc2ncnc3[nH]cc(F)c23)C1 [Example 42, 1-{(3R)-3-[(5-fluoro-7H-pyrrolo[2,3-d]pyrimidin-4-yl)amino]piperidin-1-yl}prop-2-en-1-one] |
| 2.8 nM | 305 nM | C=CC(=O)N1CCC[C@@H](Nc2ncnc3[nH]cc(CCOC)c23)C1 [Example 46, 1-[(3R)-3-{[5-(2-methoxyethyl)-7H-pyrrolo[2,3-d]pyrimidin-4-yl]amino}piperidin-1-yl]prop-2-en-1-one] |
| 0.8 nM | 101 nM | C#Cc1c[nH]c2ncnc(N3CC[C@H]4CCN(C(=O)C=C)C[C@H]43)c12 [Example 48, 1-[(3aS,7aS)-1-(5-ethynyl-7H-pyrrolo[2,3-d]pyrimidin-4-yl)octahydro-6H-pyrrolo[2,3-c]pyridin-6-yl]prop-2-en-1-one] |
